Source: ChEMBL document CHEMBL1201862, “PubChem BioAssay data set” (2004)
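These data come from cells grown in 96-well plates and exposed to compound for 48 hours at five concentrations. GI50 = concentration required for 50% inhibition of growth.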 Calls of active or inactive are those of the source. No stated cut-off is given here; in the data, active = GI50 up to about 1.1 µM and inactive = higher.

Key:
Assay in all cases: NCI anticancer screen, dose series, 48 h
[1] = test system: SK-MEL-2
[2] = test system: SF-268
[3] = test system: CCRF-CEM
[4] = test system: NCI-H226
[5] = test system: UO-31
[6] = test system: NCI-H460
[7] = test system: SK-MEL-28
[8] = test system: TK-10
[9] = test system: HL-60
[10] = test system: MOLT-4
[11] = test system: KM12
[12] = test system: SW-620
[13] = test system: OVCAR-3
[14] = test system: RPMI-8226
[15] = test system: U-251
[16] = test system: SK-MEL-5
[17] = test system: CAKI-1

SMILES | GI50 [1] | GI50 [2] | GI50 [3] | GI50 [4] | GI50 [5] | GI50 [6] | GI50 [7] | GI50 [8] | GI50 [9] | GI50 [10] | GI50 [11] | GI50 [12] | GI50 [13] | GI50 [14] | GI50 [15] | GI50 [16] | GI50 [17]
CSC(=N)N1N=C2c3ccccc3CC[C@@H]2[C@@H]1c1ccccc1 | 14.6 µM (inactive) | 22 µM (inactive) | 19.3 µM (inactive) | 9.73 µM (inactive) | 9.64 µM (inactive) | 13.2 µM (inactive) | 15.6 µM (inactive) | 17 µM (inactive) | 10.6 µM (inactive) | 9.71 µM (inactive) | 14.4 µM (inactive) | 15.5 µM (inactive) | 15.8 µM (inactive) | 12.1 µM (inactive) | 17.1 µM (inactive) |  | 
CC(=O)O[C@@H]1CC[C@@]2(C)C(=O)C34C[C@@]5(C)C([C@@H](C)CCCC(C)C)CCC5(C)[C@](O)(O3)C(=O)[C@H]4C2C1(C)C (stereo partly drawn) | 19.8 µM (inactive) | 15.8 µM (inactive) | 4.3 µM (inactive) | 15.7 µM (inactive) | 13.3 µM (inactive) | 6.04 µM (inactive) | 18.9 µM (inactive) | 16.6 µM (inactive) | 10.2 µM (inactive) | 7.74 µM (inactive) | 11.3 µM (inactive) | 11.5 µM (inactive) | 12.3 µM (inactive) | 13.4 µM (inactive) | 14.3 µM (inactive) | 15 µM (inactive) | 14.7 µM (inactive)
Cc1cc(O)nc(CNC(=O)c2cccc(C(=O)NCc3cc(O)nc(C)n3)c2)n1 | > 100 µM (inactive) | > 100 µM (inactive) | > 100 µM (inactive) | > 100 µM (inactive) | > 100 µM (inactive) | > 100 µM (inactive) | > 100 µM (inactive) | > 100 µM (inactive) | > 100 µM (inactive) | > 100 µM (inactive) | > 100 µM (inactive) | > 100 µM (inactive) | > 100 µM (inactive) | > 100 µM (inactive) | > 100 µM (inactive) | > 100 µM (inactive) | 
Cc1cc2c(=O)cc(-c3ccncc3)oc2c(C(=O)O)c1C | > 100 µM (inactive) | > 100 µM (inactive) | > 100 µM (inactive) | > 100 µM (inactive) | > 100 µM (inactive) | > 100 µM (inactive) | > 100 µM (inactive) | > 100 µM (inactive) | > 100 µM (inactive) | > 100 µM (inactive) |  | > 100 µM (inactive) | > 100 µM (inactive) | > 100 µM (inactive) | > 100 µM (inactive) |  | 
CC(=O)N1C(=O)C(=O)c2cc(Cl)ccc21 |  | > 100 µM (inactive) | > 10 µM (inactive) | > 100 µM (inactive) | > 100 µM (inactive) | > 100 µM (inactive) | > 100 µM (inactive) | > 100 µM (inactive) | > 100 µM (inactive) | > 100 µM (inactive) | > 100 µM (inactive) | > 100 µM (inactive) | > 100 µM (inactive) | > 100 µM (inactive) | > 100 µM (inactive) | > 100 µM (inactive) | 
C#C[C@]1(O)CCCC2=CC(=O)CC[C@@]21C | > 100 µM (inactive) | > 100 µM (inactive) | > 100 µM (inactive) | > 100 µM (inactive) | > 100 µM (inactive) | > 100 µM (inactive) | > 100 µM (inactive) | > 100 µM (inactive) | > 100 µM (inactive) | > 100 µM (inactive) | > 100 µM (inactive) | > 100 µM (inactive) | > 100 µM (inactive) | > 100 µM (inactive) | > 100 µM (inactive) | > 100 µM (inactive) | 
Cn1cnc([N+](=O)[O-])c1Sc1nnnn1-c1ccccc1 | 14.1 µM (inactive) | 19.5 µM (inactive) | 2.39 µM (inactive) | 17.3 µM (inactive) | 13.7 µM (inactive) | 16.5 µM (inactive) | 14.4 µM (inactive) | 17.9 µM (inactive) |  | 2.17 µM (inactive) | 17.4 µM (inactive) | 7.05 µM (inactive) | 13.6 µM (inactive) | 11.4 µM (inactive) | 13 µM (inactive) | 16.1 µM (inactive) | 15.9 µM (inactive)
C[Si]12OCCCN(CCO1)CCO2 | > 100 µM (inactive) | > 100 µM (inactive) | > 100 µM (inactive) |  | > 100 µM (inactive) | > 100 µM (inactive) | > 100 µM (inactive) | > 100 µM (inactive) |  | > 100 µM (inactive) | > 100 µM (inactive) | > 100 µM (inactive) | > 100 µM (inactive) | > 100 µM (inactive) | > 100 µM (inactive) | > 100 µM (inactive) | > 100 µM (inactive)
Cc1ccc(NC(=O)CC(=O)n2nc(-c3ccccc3)c(/N=N/c3ccc(Cl)cc3)c2-c2ccccc2)cc1 | > 100 µM (inactive) | > 100 µM (inactive) | 24.4 µM (inactive) | > 100 µM (inactive) | > 100 µM (inactive) | 40.3 µM (inactive) | > 100 µM (inactive) | 22.3 µM (inactive) | 0.221 µM (active) | 83.9 µM (inactive) | 36.5 µM (inactive) | 15.2 µM (inactive) | 42.6 µM (inactive) | 23.3 µM (inactive) |  | > 100 µM (inactive) | > 100 µM (inactive)
Cc1ccc(S(=O)(=O)OC(C=O)C(O)C(O)COC(c2ccccc2)(c2ccccc2)c2ccccc2)cc1 (stereo not drawn) | 16.2 µM (inactive) | 19.6 µM (inactive) |  | 14.9 µM (inactive) | 16.8 µM (inactive) | 14 µM (inactive) | 20.6 µM (inactive) |  |  | 6.08 µM (inactive) | 11.9 µM (inactive) | 16.4 µM (inactive) | 14.9 µM (inactive) | 12.2 µM (inactive) | 14.4 µM (inactive) | 15.4 µM (inactive) | 19.8 µM (inactive)
NC(CCSCCF)C(=O)O (stereo not drawn) | > 100 µM (inactive) | > 100 µM (inactive) | > 100 µM (inactive) | > 100 µM (inactive) | > 100 µM (inactive) | > 100 µM (inactive) | > 100 µM (inactive) | > 100 µM (inactive) | > 100 µM (inactive) | > 100 µM (inactive) | > 100 µM (inactive) | > 100 µM (inactive) | > 100 µM (inactive) | > 100 µM (inactive) | > 100 µM (inactive) |  | > 100 µM (inactive)
O=C(Nc1cccc(O)c1)C(=O)C(C(=O)c1ccc(Cl)c(Cl)c1)C1OC(=O)c2ccccc21 (stereo not drawn) | 17.5 µM (inactive) | 10.4 µM (inactive) | 12.5 µM (inactive) | 3.46 µM (inactive) | 13.7 µM (inactive) | 13.2 µM (inactive) | 21.6 µM (inactive) | 23.8 µM (inactive) | 12.9 µM (inactive) | 5.01 µM (inactive) | 19.5 µM (inactive) | 14.4 µM (inactive) |  | 16 µM (inactive) | 8.02 µM (inactive) | 19.7 µM (inactive) | 27.2 µM (inactive)
C=C1CC(CCCl)(c2ccccc2)OC1=O (stereo not drawn) | > 57.5 µM (inactive) | > 67 µM (inactive) | 20 µM (inactive) | > 100 µM (inactive) | 58.3 µM (inactive) | > 100 µM (inactive) | 16.2 µM (inactive) | > 47.5 µM (inactive) | 19.8 µM (inactive) | 21.1 µM (inactive) | 44.7 µM (inactive) | 20.2 µM (inactive) | 26.1 µM (inactive) | 15.8 µM (inactive) | > 59.3 µM (inactive) | > 100 µM (inactive) | 
NNC(=O)N/N=C1\CNC(=O)C(=O)C1c1nc2ccccc2s1 (stereo not drawn) | > 100 µM (inactive) | > 100 µM (inactive) | > 100 µM (inactive) | > 100 µM (inactive) | > 100 µM (inactive) | > 100 µM (inactive) | > 100 µM (inactive) | > 100 µM (inactive) | > 100 µM (inactive) |  | > 100 µM (inactive) | > 100 µM (inactive) | > 100 µM (inactive) | > 100 µM (inactive) | > 100 µM (inactive) | > 100 µM (inactive) | > 100 µM (inactive)
Oc1cccc2c1NC1=C(CCC/C1=C\c1ccccc1)C2 |  | > 100 µM (inactive) | 37.3 µM (inactive) | > 100 µM (inactive) | 51.2 µM (inactive) | 57.1 µM (inactive) | > 100 µM (inactive) | > 100 µM (inactive) | 40.1 µM (inactive) | 34.8 µM (inactive) | > 100 µM (inactive) | > 100 µM (inactive) | > 100 µM (inactive) | 52 µM (inactive) | 69 µM (inactive) | > 100 µM (inactive) | 
CSCC(COC(C)=O)(CSC)c1ccncc1 | > 100 µM (inactive) | > 100 µM (inactive) | > 100 µM (inactive) |  | > 100 µM (inactive) | > 100 µM (inactive) | > 100 µM (inactive) | > 100 µM (inactive) | > 100 µM (inactive) | > 100 µM (inactive) | > 100 µM (inactive) | > 100 µM (inactive) | > 100 µM (inactive) | > 100 µM (inactive) | > 100 µM (inactive) | 53.6 µM (inactive) | > 100 µM (inactive)
COc1c(OC)c(N)c2cc(C)c(=O)c(C)cc2c1N | > 100 µM (inactive) | > 100 µM (inactive) | 41.9 µM (inactive) |  | > 100 µM (inactive) | > 100 µM (inactive) |  | > 100 µM (inactive) | > 100 µM (inactive) | > 100 µM (inactive) | > 100 µM (inactive) | 18.1 µM (inactive) | > 100 µM (inactive) | > 100 µM (inactive) | > 100 µM (inactive) | > 100 µM (inactive) | > 100 µM (inactive)
O=C(Nc1cccc(Cl)c1)c1cc2cc(/N=N/c3ccc(Br)cc3)ccc2oc1=O | 12.9 µM (inactive) | 14.6 µM (inactive) |  |  | 14 µM (inactive) | 36 µM (inactive) | 47.8 µM (inactive) | 51.1 µM (inactive) |  | 14.9 µM (inactive) | 19.2 µM (inactive) | 29.3 µM (inactive) | 22.8 µM (inactive) | 33.2 µM (inactive) | 26.7 µM (inactive) | 36.8 µM (inactive) | 23.2 µM (inactive)
